Reference: US9469648B2, “Reversal of drug-induced neuromuscular block using novel molecular containers” (University of Maryland, College Park, priority 2010, dated 2016)
Where two headings read alike, the source gives them in different places. Values belong to the compound of their own block, whether it stands above or below them.

Tests used:
[1] = Binding affinities of compounds towards Motor2
[2] = tested on: HEK293; assay: AK (adenylate kinase release) cytotoxicity assay, HEK293; type: cell-based
Description: FIG. 27. Toxicology of Motor1 using the human kidney cell line HEK293. Results from (A) MTS assay (B) AK assay. Untreated population (UT), Distilled water (D), Erythromycin (E), Erythromycin Estolate (EE).
(§1) Toxicity Studies: To measure the cellular toxicity of Motor1 we use two complementary assays: an MTS (CellTiter 96 AQueous Kit®) assay that measures cellular metabolism, and a cytotoxicity assay (Toxilight®BioAssay Kit) that measures cell death via the release of the cytosolic enzyme adenylate kinase into the supernatant. Both assays were used with two different cell lines commonly used in drug toxicity studies, HEK293 and HepG2 cell lines. HEK293, a human kidney cell line, is used to assess the effect of the drug candidate on the renal system and HepG2, a human hepatocyte cell line, is used to assess the response of liver cells where drugs are metabolized. Both assays included the use of an untreated population, and cells treated with distilled water, erythromycin and erythromycin estolate. Erythromycin is a commercially available drug widely used to treat bacterial infections. […] […].
(§2) Both cell lines were incubated with the containers (0.01, 0.1, 1 and 10 mM) for 2 days prior to analysis with the two assays. Relative absorbance and luminescence data was normalized to percent cell viability (MTS) and cell death (AK). For the MTS assay, the untreated cells were set at 100% cell viability while the cell population treated with distilled water was set at a 100% cell death for the AK assay.

[3] = Binding of Motor1 and Motor2 with Etomidate
[4] = tested on: rocuronium-induced neuromuscular block; assay: Reversal of rocuronium-induced neuromuscular block in anesthetized rats; type: in vivo; details: for Time until normal breathing recovered: rocuronium 3.5 mg/kg, placebo 720 s; for Time until quadriceps femoris twitch height normalized: rocuronium, placebo 960 s
Protocol: (§3) Spontaneous breathing was maintained during surgery and if possible according to normal protocol. Rats lay in the supine position with the head supported in a neutral position in the midline on a soft piece of tissue. The left femoral vein and artery were cannulated for drug infusion and blood sampling. […] Corning, N.Y., USA) and continuous measurement of blood pressure (PowerLab; ADInstruments, Colorado Springs, Mo.) and heart rate were performed. If mechanical ventilation was necessary animals were ventilated through a tracheostomy (SAR-830; CWE, Ardmore, Pa., USA). Rectal temperature was kept at 37.0±0.1° C. using a thermostatic heating pad (FHC, Bowdoinham, Me.). Level of anesthesia was maintained throughout the experiment to eliminate cardiovascular response to tail pinch. In all treatment groups, systemic physiological parameters were kept well within normal range. The right leg was shaved and the femoral nerve was stimulated supramaximally with subcutaneous needle electrodes, and the evoked response of the quadriceps femoris muscle was measured by accelerometry, with the TOF-Watch SX Monitor (Organon Ireland Ltd, a part of Schering-Plough Corporation, Dublin, Ireland), as described previously (Fassbender et al, Anesthesiology 2007). The transducer was fixed to the skin ventromedially at the proximal end of the thigh, next to the tibial tuberosity (insertion point of the patellar ligament). […] Endpoints included time to recovery of spontaneous breathing, twitch height as well as TOF-ratio.

[5] = Binding of Motor1 and Motor2 with Ketamine (Rhodamine 6G indicator competition, UV-VIS); details: Rhodamine 6G displacement titration, 20 mM phosphate buffer pH 7.4
[6] = tested on: human erythrocytes
[7] = tested on: HepG2; type: cell-based; details: untreated population 60%
Description: FIG. 28. Toxicology of Motor1 using the human liver cell line HepG2. Results from (A) MTS assay (B) AK assay. Untreated population (UT), Distilled water (D), Erythromycin (E), Erythromycin Estolate (EE).
as §1, §2

[8] = tested on: cisatracurium-induced neuromuscular block; assay: Reversal of cisatracurium-induced neuromuscular block in anesthetized rats; type: in vivo; details: for Time until normal breathing recovered / Time until quadriceps femoris twitch height normalized: cisatracurium; for Time until normal breathing recovered: placebo 750 (17) s, means (SD); for Time until quadriceps femoris twitch height normalized: placebo 1002 (122) s
Protocol: as §3

[9] = rat, in vivo
[10] = Tolerance in mice after tail vein injection (body weight); type: in vivo; details: tail vein injection at day 0, 4 and 8, weight monitored
Protocol: FIG. 30. […] Indicated amounts of Motor1 were injected into the tail vein of outbred Swiss Webster mice at day 0, 4 and 8. The weight of each mouse was monitored over time and there were 5 mice per experimental group.
Indicated amounts of Motor1 were injected into the tail vein of outbred Swiss Webster mice at day 0, 4 and 8. The weight of each mouse was monitored over time and there were 5 mice per experimental group.

[11] = Self-association study by 1H NMR at varied concentration; type: physicochemical; details: 20 mM NaD2PO4, pD=7.4, 1H NMR
[12] = rat, in vivo; remark: listed apart in the source
[13] = tested on: ketamine anesthesia; assay: Reversal of ketamine anesthesia in rats; type: in vivo
[14] = Binding constants of Motor1 towards guests; details: host Motor1
[15] = ketamine anesthesia, Motor2 200 mg

Ka (M^−1) with Motor2 ([1]; host Motor2): 1.0 ± 0.1 × 10^9 M^−1
Compound: COc1ccc(CC2c3cc(OC)c(OC)cc3CC[N+]2(C)CCC(=O)OCCCCCOC(=O)CC[N+]2(C)CCc3cc(OC)c(OC)cc3C2Cc2ccc(OC)c(OC)c2)cc1OC (centres unmarked) [Atracurium besilate]

Compound: CCC(=O)O[C@H]1[C@H](O[C@@H]2[C@@H](C)[C@H](O[C@H]3C[C@@](C)(OC)[C@@H](O)[C@H](C)O3)[C@@H](C)C(=O)O[C@H](CC)[C@@](C)(O)[C@H](O)[C@@H](C)C(=O)[C@H](C)C[C@@]2(C)O)O[C@H](C)C[C@@H]1N(C)C [Erythromycin estolate]
Percent cell death (AK) ([2]; human, 2 days, 1 mM): 49%

Compound: CC[C@H]1OC(=O)[C@H](C)[C@@H](O[C@H]2C[C@@](C)(OC)[C@@H](O)[C@H](C)O2)[C@H](C)[C@@H](O[C@@H]2O[C@H](C)C[C@H](N(C)C)[C@H]2O)[C@](C)(O)C[C@@H](C)C(=O)[C@H](C)[C@@H](O)[C@]1(C)O [Erythromycin]
Percent cell death (AK) ([2]; HEK293, 1 mM): 25%

Compound: CC12N3Cc4c(OCCCS(=O)(=O)[O-])ccc(OCCCS(=O)(=O)[O-])c4CN1C(=O)N1CN4C(=O)N5CN6C(=O)N7CN8C(=O)N9Cc%10c(OCCCS(=O)(=O)[O-])ccc(OCCCS(=O)(=O)[O-])c%10CN%10C(=O)N(CN%11C(=O)N(CN%12C(=O)N(CN(C3=O)C12C)C4C%125)C6C%117)C8(C)C%109C.[Na+].[Na+].[Na+].[Na+] (centres unmarked) [Motor1]
Binding constant with Etomidate [3]: 35318 M⁻¹
Mean recovery of spontaneous breathing ([4]; complete rocuronium-induced block, 90 mg as printed): 723 s
Mean recovery of spontaneous breathing ([4]; complete rocuronium-induced block, dose not given): 10 s
Reversal of rocuronium (in words) ([4]; rats, Motor1 10, 20, 30 mg): reversed rocuronium effectively, in a dose-dependent fashion
Time until normal breathing recovered ([4]; Motor1 10 mg): 120 ± 15 s
Time until normal breathing recovered ([4]; Motor1 20 mg): 15 ± 5 s
Time until normal breathing recovered ([4]; Motor1 30 mg): 8 ± 3 s
Time until quadriceps femoris twitch height normalized ([4]; Motor1 10 mg): 240 s
Time until quadriceps femoris twitch height normalized ([4]; Motor1 20 mg): 120 s
Time until quadriceps femoris twitch height normalized ([4]; Motor1 30 mg): 60 s
Binding constant (Ka) with Ketamine [5]: 39020 M⁻¹
Percent hemolysis [6]: ≤ 20%
Toxicity to human erythrocytes (overall) [6]: non-toxic
% cell death (AK) ([7]; HepG2, 0.01 mM): 55%
% cell death (AK) ([7]; HepG2, 0.1 mM): 56%
% cell death (AK) ([7]; HepG2, 1 mM): 50%
% cell death (AK) ([7]; HepG2, 10 mM): 17%
Time until normal breathing recovered ([8]; 30 mg Motor1): 28 (6) s
Time until normal breathing recovered ([8]; 60 mg Motor1): 11 (4) seconds
Time until quadriceps femoris twitch height normalized ([8]; first Motor1 dose listed (dose not given; 15 mg)): 266 (17) s
Time until quadriceps femoris twitch height normalized ([8]; second Motor1 dose listed (30 mg)): 130 (14) s
Time until quadriceps femoris twitch height normalized ([8]; third Motor1 dose listed (60 mg)): 68 (10) s
Motor1 concentration in the urine relative to plasma [9]: equals concentration in the plasma
Tolerance in mice [10]: well tolerated
Ka, two-fold self-association model [11]: 47 M⁻¹
Percent cell death (AK) ([2]; HEK293, all concentrations (0.01, 0.1, 1 and 10 mM)): below 5%
Arterial blood gas parameters pH, pCO2, and pO2 [12]: did not change
Heart rate and mean arterial blood pressure [12]: did not change
Side effects on arterial blood-gas analysis, EKG, arterial blood pressure, heart rate [12]: did not have any side effects

Compound: CC12N3Cc4c(c(OCCCS(=O)(=O)[O-])c5ccccc5c4OCCCS(=O)(=O)[O-])CN1C(=O)N1CN4C(=O)N5CN6C(=O)N7CN8C(=O)N9Cc%10c(c(OCCCS(=O)(=O)[O-])c%11ccccc%11c%10OCCCS(=O)(=O)[O-])CN%10C(=O)N(CN%11C(=O)N(CN%12C(=O)N(CN(C3=O)C12C)C4C%125)C6C%117)C8(C)C%109C.[Na+].[Na+].[Na+].[Na+] (centres unmarked) [Motor2]
Binding constant with Etomidate [3]: 36812 M⁻¹
Mean time to recovery of the twitch height to 90% ([4]; complete rocuronium-induced block, 90 mg, placebo 19 minutes): 2.5 min
Binding constant (Ka) with Ketamine [5]: 193490 M⁻¹
Reversal of ketamine anesthesia (in words) ([13]; ketamine 1500 μg/kg/min, Motor2 200 mg at 60 minutes): reverses ketamine anesthesia
Electroencephalogram (EEG) [13, 15]: wakefulness-like electrical activity
Respiratory rate and arterial blood pressure [13, 15]: increased
Time until the rat woke up after injection ([13]; steady-state ketamine infusion, Motor2 200 mg): ≤ 2 min
Speed of reversal of cisatracurium, twitch height recovery (comparison) ([8]; low-dose Motor2 versus high-dose Motor1): reverses the benzylisoquinolinum cisatracurium faster than high-dose 1
Ka, two-fold self-association model [11]: 624 M⁻¹
Side effects on arterial blood-gas analysis, EKG, arterial blood pressure, heart rate [12]: did not have any side effects

Ka (M^−1) with Motor2 ([1]; host Motor2): 7.8 ± 0.8 × 10^8 M^−1
Compound: Nc1ccc2cc3ccc(N)cc3nc2c1 [Proflavin]

Ka, binding constant of Motor1 towards guest [14]: 1.4 ± 0.1 × 10^6
Compound: COc1ccc(CC2c3cc(OC)c(OC)cc3CC[N+]2(C)CCC(=O)OCCCCCOC(=O)CC[N+]2(C)CCc3cc(OC)c(OC)cc3C2Cc2ccc(OC)c(OC)c2)cc1OC (centres unmarked) [atracurium]

Compound: CC[N+](CC)(CC)CCOc1cccc(OCC[N+](CC)(CC)CC)c1OCC[N+](CC)(CC)CC [gallamine]
Ka, binding constant of Motor1 towards guest [14]: 6.2 ± 0.5 × 10^6
Ka (M^−1) with Motor2 [1]: 3.2 ± 0.4 × 10^8 M^−1

Compound: COc1cc2c3cc1Oc1cc(ccc1O)C[C@@H]1c4c(cc(OC)c(O)c4Oc4ccc(cc4)C[C@@H]3N(C)CC2)CC[N+]1(C)C [tubocurarine]
Ka, binding constant of Motor1 towards guest [14]: 4.7 ± 0.2 × 10^5

Compound: CC(=O)O[C@H]1C[C@@H]2CC[C@@H]3[C@H](CC[C@@]4(C)[C@H]3C[C@H]([N+]3(C)CCCCC3)[C@@H]4OC(C)=O)[C@@]2(C)C[C@@H]1N1CCCCC1 [vecuronium]
Ka, binding constant of Motor1 towards guest [14]: 5.8 ± 0.9 × 10^6
Ka (M^−1) with Motor2 [1]: 1.6 ± 0.2 × 10^9 M^−1

Compound: Cyclohexanediamine
Ka (M^−1) with Motor2 ([1]; host Motor2): 2.1 ± 0.2 × 10^8 M^−1
